Common to all, as to type: cell-based, mouse
The test system of one assay is NF-kB. Nature of the assay: Nanoparticle screening: NFkB activation in RAW-Blue reporter cells. On the procedure:
A schematic representation of nanoparticle screening is depicted in Supplementary Figure S4. Briefly, RAW-Blue NFkB reporter cells were cultured as per the manufacturer's recommendations. Cells were seeded and cultured overnight in black opaque 96-well plates with a clear bottom at 50,000 per well. Cells were then treated with 1 and 10 µM of nanoparticles containing 1% rhodamine and positive and negative controls (see below) for 30 min on ice followed by washing steps with cold PBS. Next, lipopolysaccharide (LPS) was added at 100 ng/mL and incubated for 6 h at 37 °C, following which the cells were washed again and incubated for 18 h at 37 °C in fresh medium. Next, 20 µL of supernatant was collected and assayed using SEAP detection reagent in a separate clear bottom 96-well plate as per Invivogen instructions (http://www.invivogen.com). Absorbance at OD 650 nm was recorded and was indicative of NFkB activation. In parallel, cells in the opaque plate were washed again and fluorescence was read at 550 nm excitation and 620 nm emission. This signal from rhodamine was indicative of nanoparticle uptake. […] All analysis was performed using Molecular Devices i3 multi-mode plate reader and SoftMax Pro software version 6.2 (Molecular Devices).

The subject of another assay is CCR2. Nature of the assay: Uptake in macrophages from CCR2 knockout mice. As to conditions: CCR2 KO vs wild-type, carboxyfluorescein-labeled. On the procedure: Supplementary Figure S6. A) Separate channels for main manuscript Figure 1B.
Uptake of carboxyfluorescein-labeled CCTV or VTCC in cultured bone marrow derived macrophages from B)
CCR2 knockout (KO, B6.129S4-Ccr2 /J) or wild-type (WT) mice; C) wild-type mouse-derived macrophages
pre-treated (6 h) with CCR2 inhibitor BMS CCR2 22 (10 nM) or DMSO as vehicle control. C)
(1 picture or pasted object on this page, not shown here)

The subject of another assay is BMDMs. Nature of the assay: DCFDA ROS assay. As to conditions: LPS (100 ng/mL) BMDMs, 12 experiments. The protocol:
GSH /GSSG, lactate dehydrogenase (LDH) and DCFDA assays were performed according to the manufacturer's instructions. The assays were purchased from vendors as indicated in Supplemental Table S1.

Another assay concerns IL-1β. Nature of the assay: IL-1β release, AlphaLISA. As to conditions: inflammasome experiment supernatants, 4 experiments. The protocol: Cytokines were analyzed by EVE Technologies (https://www.evetechnologies.com) using the Luminex 31-Plex kit. Cell culture supernatants were diluted twice with PBS and provided in biological triplicates to EVE Technologies via overnight shipment in dry ice. Individual IL-1β and TNFɑ assays were performed using Perkin Elmer AlphaLISA kits, as per Supplementary Table S1 and vendor instructions.
BMDMs or J774 cells were plated in 48-well plates at 2 x 10^5 per well. Next day, the medium was changed to Opti-MEM (100 μL per well) without serum and the cells were allowed to equilibrate for 3 h. Next, the cells were pretreated with the indicated concentrations of nanoparticles or controls for 3 h followed by the addition of LPS to some wells to the final LPS concentration of 50 ng/mL. LPS priming continued for another 2 h, following which DMSO (vehicle), Nigericin (5 μM) or adenosine triphosphate (ATP) (1 mM) were added to some wells. Cells were incubated for an additional 30 min and cell culture supernatants were collected on ice. Cells were washed with cold PBS once and lysed/processed as described in immunoblotting section. The supernatants (90 μL) were mixed with 10 μL of 10x SDS loading buffer (10% SDS, 10% Ficoll 400, 0.5 M Tris pH 6.8, 0.5 M DTT, and 0.001% bromophenol blue) and heat-denatured as described in the immunoblotting section. […]
On the technique in general: Alpha assays give light when donor and acceptor beads are brought close together.

“Also recorded” adds a separate entry of the source.

With CCTV, in the assay with NF-kB (10 µM nanoparticles vs Dex 1 mM, LPS 100 ng/mL), the “NF-kB activity compared with dexamethasone” value is listed as “almost to the same level as that in cells treated with NF-kB inhibitor dexamethasone (Dex) at 1 mM”. In the assay on NF-kB (1 and 10 µM nanoparticles, 30 min on ice, LPS 100 ng/mL 6 h, SEAP OD 650 nm), the NF-kB activity entry is “significantly downregulated NF-kB activity”. Besides, in the assay with CCR2, the “uptake in CCR2 knockout macrophages” value is listed as “drastically reduced”. Further, the ROS production entry in the assay with BMDMs is “inhibited ROS production in response to LPS; also recorded: significantly blunted”. Also, the IL-1β release result with IL-1β is given as “confirmed the actions of CCTV”.

The values above are taken from article PMC6838142, “Nano-Antagonist Alleviates Inflammation and Allows for MRI of Atherosclerosis” (Nanotheranostics, 2019).
